The results in this text go back to patent publication US9790218B2, “Small molecule activators of calcium-activated chloride channels and methods of use” (The Regents of the University of California, priority 2011, dated 2017).

Each structure is given as a SMILES string.

For assay [1], the system named is CF human bronchial epithelial (CF HBE) cells. The assay is described as follows: Short-circuit current in CF HBE cells. Format: cell-based. As to conditions: no IL-4; UTP 100 μM. The method, then: FIG. 5A-B. Airway epithelial chloride secretion. FIG. 5A. Short-circuit current in CF HBE cells. Eact and UTP (100 μM) were added in control (left) and IL-4 (10 ng/ml, 24 h, middle) treated CF HBE cells. (right) Summary of Eact-induced, T16Ainh-A01-sensitive peak current (mean±S.E., n=6-8, * P<0.05). ENaC was inhibited by 10 μM amiloride. FIG. 5B. Eact (10 μM) and UTP (100 μM) induced CaCC Cl^− current measured in primary cultures of non-CF human tracheal gland (HTG) serous cells. (left and gmiddle) TMEM16A, CFTR and ENaC were inhibited by pretreatment with T16Ainh-A01, CFTRinh-172 and amiloride, respectively. Inset: TMEM16A immunoblot in whole cell homogenates of CF HBE and HTG cells. (right) Summary of UTP and Eact-induced peak current in the presence and absence of T16Ainh-A01 (mean±S.E., n=3, * P<0.05).
Tracheal and bronchial tissues were obtained from non-CF and CF patients following lung transplantation or from postmortem examinations performed within 24 h after death. […]
Snapwell inserts containing TMEM16A-expressing FRT, HBE, CF HBE or HTG cells were mounted in Ussing chambers (Physiologic Instruments, San Diego, Calif.). […] Apical membrane current (for FRT cells) and short-circuit current were measured using an EVC4000 Multi-Channel V/I Clamp (World Precision Instruments, Sarasota, Fla.) and recorded using PowerLab/8sp (AD Instruments, Castle Hill, Australia).

In assay [2] the test system is non-CF human tracheal gland (HTG) serous cells. Kind of assay: Short-circuit current in human tracheal gland (HTG) serous cells. The class given is cell-based. As to conditions: Eact 10 μM, UTP 100 μM. On the procedure: FIG. 5A-B. Airway epithelial chloride secretion. FIG. 5A. Short-circuit current in CF HBE cells. Eact and UTP (100 μM) were added in control (left) and IL-4 (10 ng/ml, 24 h, middle) treated CF HBE cells. (right) Summary of Eact-induced, T16Ainh-A01-sensitive peak current (mean±S.E., n=6-8, * P<0.05). ENaC was inhibited by 10 μM amiloride. FIG. 5B. Eact (10 μM) and UTP (100 μM) induced CaCC Cl^− current measured in primary cultures of non-CF human tracheal gland (HTG) serous cells. (left and gmiddle) TMEM16A, CFTR and ENaC were inhibited by pretreatment with T16Ainh-A01, CFTRinh-172 and amiloride, respectively. Inset: TMEM16A immunoblot in whole cell homogenates of CF HBE and HTG cells. (right) Summary of UTP and Eact-induced peak current in the presence and absence of T16Ainh-A01 (mean±S.E., n=3, * P<0.05). […]
Snapwell inserts containing TMEM16A-expressing FRT, HBE, CF HBE or HTG cells were mounted in Ussing chambers (Physiologic Instruments, San Diego, Calif.). […] Apical membrane current (for FRT cells) and short-circuit current were measured using an EVC4000 Multi-Channel V/I Clamp (World Precision Instruments, Sarasota, Fla.) and recorded using PowerLab/8sp (AD Instruments, Castle Hill, Australia). […]

The test system of assay [3] is mouse ileal smooth muscle. Kind of assay: Intestinal smooth muscle contraction, ex vivo mouse ileal segments. The following applies: carbachol 1 μM. On the procedure: FIG. 8A-C. Intestinal smooth muscle contraction. FIG. 8A. Representative traces from mouse ileal segments showing effects of T16Ainh-A01 (10 μM), carbachol (CCh, 1 μM) and Eact (10 μM). FIG. 8B. Effect of CCh (1 μM) and Eact (10 μM) following atropine (1 μM). FIG. 8C. Summary of contraction frequency (left), and resting and maximum tone (right) (mean±S.E., n=4-7, * P<0.05).
Wild type CD1 mice (age 8-10 weeks) were killed by avertin overdose (200 mg/kg). The ileum removed and washed with ice-cold HCO3^−-buffered solution. The ends of the ileal segments were tied with silk thread and connected to a force transducer. Beal segments were equilibrated for 60 min with a resting force of ˜1 mN, with changes of the bathing solution every 15 min. Tension was monitored continuously with a fixed-range precision force transducer (TSD, 125 C; Biopac, Goleta, Calif.) connected to a differential amplifier (DA 100B; Biopac). Data were recorded using MP100, Biopac digital acquisition system and analyzed using Acknowledge 3.5.7 software.
TMEM16A in expressed in the interstitial cells of Cajal, the pacemaker cells that control smooth muscle contraction dynamics in stomach and intestine (Huang et al., supra; Gomez-Pinilla et al. (2009) Am. J. Physiol. Gastrointest. Liver Physiol. 296, G1370-1381). The effect of Eact on mouse ileal smooth muscle contraction was investigated using an ex vivo intestinal preparation. […] Without wishing to be bound by theory, the constitutive TMEM16A activity in this ex vivo preparation could obscure Eact activity. To reveal Eact effects, atropine was first added to inhibit basal contractions. […] FIG. 8C summarizes data on contraction frequency, resting tone and maximal tone.

Assay [4] has as its system human bronchi submucosal glands. The assay is described as follows: Airway submucosal gland fluid secretion in human bronchi. As to conditions: serosal application; 300 nM carbachol, 20 μM Eact. On the procedure: FIG. 6A-C. Airway submucosal gland fluid secretion in human bronchi. FIG. 6A. TMEM16A immunohistochemistry in CF (left) and non-CF (right) human bronchi showing apical membrane expression in serous gland epithelial cells (arrows). Scale bar: 20 μm. FIG. 6B. Mucous (fluid) secretion in human bronchi. (top) Images of mucus bubbles formed under oil in response to basolateral application of 300 nM carbachol (CCh) and 20 μM Eact. TMEM16A was inhibited by 30 μM T16Ainh-A01. Individual fluid bubbles marked with arrowheads. Scale bar: 0.5 mm. (bottom) CCh and Eact-induced secretion rates. Where indicated, tissues were pre-treated with T16Ainh-A01 (30 μM). Each point is the average of measurements made from 20 glands (mean±S.E. * P<0.05). FIG. 6C. Summary of human gland fluid secretion rates measured at 20 min after addition of 20 μM Eact, and 30 min after application of 300 nM carbachol (CCh) and 10 μM forskolin (20-66 glands from 3 tracheas and 4 bronchus). In CF-bronchi, 6 glands from one donor were stimulated by Eact. […]
Similar staining was found in non-CF and CF human bronchi. Fluid secretion was measured in individual submucosal glands from the increasing size of mucus (fluid) bubbles in which airway fragments were mounted in a 37° C. perfusion chamber and the mucosal solution was covered with oil.

With `O=c1ccn([C@@H]2O[C@H](COP(=O)(O)OP(=O)(O)OP(=O)(O)O)[C@@H](O)[C@H]2O)c(=O)[nH]1` [UTP, reference compound], in assay [1], the “Cl^− current in untreated CF bronchial epithelial cells” value is “produced a large Cl^− current”. For the same compound, the “Cl^− current in HTG serous cells” value in assay [2] is listed as “increased Cl^− current”.
For the compound `C[N+](C)(C)CCOC(N)=O` [carbachol], the contraction frequency entry in assay [3] is “without change in contraction frequency”. The “resting and maximum tone” value in assay [3] (Eact 10 μM, no atropine) is “increased”. In addition, the “gland fluid secretion rate” value in assay [4] is “significantly increased secretion”.
